Source: ChEMBL document CHEMBL1201862, “PubChem BioAssay data set” (2004)
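Values below derive from 48-hour exposures of cells grown in 96-well plates, with endpoints linearly interpolated between the two concentrations bracketing the appropriate inhibition level. GI50 = concentration required for 50% inhibition of growth.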 The source made the active and inactive calls. Rule as the data show it: active = GI50 up to about 1.1 µM and inactive = higher.

Tests used:
Test in all cases: growth of human tumour cells (NCI), 48 h
K562 = system: K562
SK-OV-3 = system: SK-OV-3
HOP-92 = system: HOP-92
SK-MEL-28 = system: SK-MEL-28
SNB-19 = system: SNB-19
HCT-15 = system: HCT-15
OVCAR-5 = system: OVCAR-5
HOP-62 = system: HOP-62
ACHN = system: ACHN
NCI-H23 = system: NCI-H23
MDA-MB-231 = system: MDA-MB-231
EKVX = system: EKVX
A549 = system: A549
KM12 = system: KM12
COLO 205 = system: COLO 205
SK-MEL-2 = system: SK-MEL-2
SW-620 = system: SW-620
NCI/ADR-RES = system: NCI/ADR-RES
U-251 = system: U-251
OVCAR-8 = system: OVCAR-8
MDA-MB-435 = system: MDA-MB-435
CAKI-1 = system: CAKI-1
SF-268 = system: SF-268
IGROV-1 = system: IGROV-1
UACC-62 = system: UACC-62
BT-549 = system: BT-549
HT-29 = system: HT-29
Malme-3M = system: Malme-3M
NCI-H226 = system: NCI-H226
HL-60 = system: HL-60
OVCAR-3 = system: OVCAR-3
UO-31 = system: UO-31
CCRF-CEM = system: CCRF-CEM
786-0 = system: 786-0
HCC 2998 = system: HCC 2998
M14 = system: M14
SR = system: SR
UACC-257 = system: UACC-257
NCI-H460 = system: NCI-H460
RXF 393 = system: RXF 393
SF-295 = system: SF-295
OVCAR-4 = system: OVCAR-4
MOLT-4 = system: MOLT-4
PC-3 = system: PC-3
SNB-75 = system: SNB-75
SK-MEL-5 = system: SK-MEL-5
Hs-578T = system: Hs-578T
NCI-H522 = system: NCI-H522
MCF7 = system: MCF7
SF-539 = system: SF-539
RPMI-8226 = system: RPMI-8226
TK-10 = system: TK-10
HCT-116 = system: HCT-116
DU-145 = system: DU-145
T47D = system: T47D
SN12C = system: SN12C
LOX IMVI = system: LOX IMVI
A498 = system: A498
MDA-N = system: MDA-N

Measured: GI50

O=S(=O)(O)c1cc(/N=N/c2c(O)ccc3ccccc23)c2c(S(=O)(=O)O)cccc2c1
> 100 µM: HCT-15
inactive: K562 > 100 µM | SK-OV-3 > 100 µM | HOP-92 > 100 µM | SK-MEL-28 > 100 µM | SNB-19 > 100 µM | OVCAR-5 > 100 µM | HOP-62 > 100 µM | ACHN > 100 µM | NCI-H23 > 100 µM | MDA-MB-231 > 100 µM | EKVX > 100 µM | A549 > 100 µM | KM12 > 100 µM | COLO 205 > 100 µM | SK-MEL-2 > 100 µM | SW-620 > 100 µM | NCI/ADR-RES > 100 µM | U-251 > 100 µM | OVCAR-8 > 100 µM | MDA-MB-435 > 100 µM | CAKI-1 > 100 µM | SF-268 > 100 µM | IGROV-1 > 100 µM | UACC-62 > 100 µM | BT-549 > 100 µM | HT-29 > 100 µM | Malme-3M > 100 µM | NCI-H226 > 100 µM | HL-60 > 100 µM | OVCAR-3 > 100 µM | UO-31 > 100 µM | CCRF-CEM > 100 µM | 786-0 > 100 µM | HCC 2998 > 100 µM | M14 > 100 µM | SR > 100 µM | UACC-257 > 100 µM | NCI-H460 > 100 µM | RXF 393 > 100 µM | SF-295 > 100 µM | OVCAR-4 > 100 µM | MOLT-4 > 100 µM | PC-3 > 100 µM | SK-MEL-5 > 100 µM | Hs-578T > 100 µM | NCI-H522 > 100 µM | MCF7 > 100 µM | SF-539 > 100 µM | RPMI-8226 > 100 µM | TK-10 > 100 µM | HCT-116 > 100 µM
active: SNB-75 < 0.01 µM

Nc1nnnn1NC(=O)NCCCl
inactive: K562 > 10 µM | SK-OV-3 > 10 µM | HOP-92 > 10 µM | SK-MEL-28 > 10 µM | SNB-19 > 10 µM | HOP-62 > 10 µM | DU-145 > 10 µM | ACHN > 10 µM | NCI-H23 > 10 µM | MDA-MB-231 > 10 µM | EKVX > 10 µM | T47D > 10 µM | A549 > 10 µM | KM12 > 10 µM | COLO 205 > 10 µM | SN12C > 10 µM | SK-MEL-2 > 10 µM | SW-620 > 10 µM | NCI/ADR-RES > 10 µM | U-251 > 10 µM | OVCAR-8 > 10 µM | MDA-MB-435 > 10 µM | CAKI-1 > 10 µM | SF-268 > 10 µM | IGROV-1 > 10 µM | UACC-62 > 10 µM | HT-29 > 10 µM | Malme-3M > 10 µM | NCI-H226 > 10 µM | HL-60 > 10 µM | OVCAR-3 > 10 µM | UO-31 > 10 µM | CCRF-CEM > 10 µM | 786-0 > 10 µM | HCC 2998 > 10 µM | M14 > 10 µM | SR > 10 µM | UACC-257 > 10 µM | NCI-H460 > 10 µM | RXF 393 > 10 µM | SF-295 > 10 µM | LOX IMVI > 10 µM | OVCAR-4 > 10 µM | MOLT-4 > 10 µM | PC-3 > 10 µM | A498 > 10 µM | SNB-75 > 10 µM | SK-MEL-5 > 10 µM | Hs-578T > 10 µM | NCI-H522 > 10 µM | MCF7 > 10 µM | MDA-N > 10 µM | SF-539 > 10 µM | RPMI-8226 > 10 µM | TK-10 > 10 µM | HCT-116 > 10 µM
> 10 µM: HCT-15

O=S1(=O)OCCOS(=O)(=O)C1Cc1cccc2ccccc12
26.5 µM: HCT-15
inactive: K562 15.6 µM | SK-OV-3 27.5 µM | HOP-92 17.9 µM | SK-MEL-28 2.69 µM | SNB-19 25 µM | OVCAR-5 24.3 µM | HOP-62 23.9 µM | DU-145 12 µM | ACHN 31.5 µM | NCI-H23 29.9 µM | MDA-MB-231 23 µM | EKVX 30.3 µM | T47D 39.4 µM | A549 35.2 µM | COLO 205 13.9 µM | SN12C 20.6 µM | SK-MEL-2 51.3 µM | SW-620 30.6 µM | NCI/ADR-RES 20.3 µM | U-251 18.2 µM | OVCAR-8 17.7 µM | MDA-MB-435 16.2 µM | CAKI-1 32.6 µM | SF-268 14.5 µM | IGROV-1 13.9 µM | UACC-62 22.2 µM | HT-29 25.5 µM | Malme-3M 16.1 µM | NCI-H226 7.83 µM | HL-60 11.6 µM | UO-31 23.2 µM | CCRF-CEM 14.2 µM | 786-0 21.4 µM | HCC 2998 20.1 µM | M14 20.7 µM | SR 25.2 µM | UACC-257 14.1 µM | NCI-H460 17 µM | RXF 393 3.37 µM | SF-295 32.3 µM | LOX IMVI 20.5 µM | OVCAR-4 19.8 µM | MOLT-4 23.7 µM | PC-3 33.2 µM | A498 14.1 µM | SNB-75 29.6 µM | SK-MEL-5 14.4 µM | Hs-578T 29.9 µM | NCI-H522 18.9 µM | MCF7 14.4 µM | MDA-N 21.2 µM | SF-539 22.3 µM | RPMI-8226 39.4 µM | TK-10 30.7 µM | HCT-116 20.3 µM

CC(=O)O[C@H]1CC[C@H]2[C@@H]3CCC(C(C)=O)[C@H](C(=O)O)[C@H]3CC[C@]12C (stereo not given in full)
> 100 µM: HCT-15
inactive: K562 > 100 µM | SK-OV-3 > 100 µM | HOP-92 > 100 µM | SK-MEL-28 > 100 µM | SNB-19 > 100 µM | OVCAR-5 > 100 µM | HOP-62 > 100 µM | NCI-H23 > 100 µM | MDA-MB-231 > 100 µM | EKVX > 100 µM | A549 > 100 µM | KM12 > 100 µM | COLO 205 > 100 µM | SK-MEL-2 > 100 µM | SW-620 > 100 µM | NCI/ADR-RES > 100 µM | U-251 > 100 µM | OVCAR-8 > 100 µM | MDA-MB-435 > 100 µM | CAKI-1 > 100 µM | SF-268 > 100 µM | IGROV-1 > 100 µM | UACC-62 > 100 µM | BT-549 > 100 µM | HT-29 > 100 µM | Malme-3M > 100 µM | HL-60 > 100 µM | OVCAR-3 > 100 µM | UO-31 > 100 µM | CCRF-CEM > 100 µM | HCC 2998 > 100 µM | M14 > 100 µM | SR > 100 µM | UACC-257 > 100 µM | NCI-H460 > 100 µM | RXF 393 > 100 µM | SF-295 > 100 µM | OVCAR-4 > 100 µM | MOLT-4 > 100 µM | PC-3 > 100 µM | A498 > 100 µM | SK-MEL-5 > 100 µM | Hs-578T > 100 µM | NCI-H522 > 100 µM | MCF7 > 100 µM | SF-539 > 100 µM | RPMI-8226 > 100 µM | TK-10 > 100 µM
